Laboratory results as given in ChEMBL document CHEMBL1131273, “Unsymmetric nonpeptidic HIV protease inhibitors containing anthranilamide as a P2' ligand” (Bioorg Med Chem Lett, 1998).

Key:
[1] = target: Human immunodeficiency virus type 1 protease (Human immunodeficiency virus 1) (UniProt Q72874); assay: Compound was tested for inhibitory activity against HIV protease; settings: concentration not given here
[2] = tested on: CCRF-CEM; assay: Antiviral activity against HIV-I 3b in CEM cells; format: functional, cell-based; settings: Homo sapiens
[3] = target: Human immunodeficiency virus type 1 protease (Human immunodeficiency virus 1, UniProt Q72874); assay: Inhibitory activity against HIV protease
[4] = Ratio Cmax/EC50 was determined; format: functional
[5] = Oral bioavailability in rat; format: ADME, organism-based; settings: in vivo
[6] = Biological half-life was measured in plasma of rats; format: ADME, organism-based; settings: rat
[7] = tested on: CCRF-CEM; assay: Antiviral activity against HIV-I 3b in CEM cells; No activity; format: functional, cell-based, Homo sapiens
[8] = Maximum plasma concentration of compound present in rats at the dose of 38 mg/kg in 15 min; format: ADME, organism-based; parameters: dose 38 mg/kg; settings: rat
[9] = Maximum plasma concentration of compound present in rats at the dose of 37 mg/kg in 15 min; format: ADME, organism-based; parameters: dose 37 mg/kg; settings: rat
[10] = tested on: CCRF-CEM; assay: Compound was tested for cellular toxicity against CEM cell line; format: functional, cell-based; settings: Homo sapiens

Structure (SMILES): Cc1nc(C(=O)N[C@@H](Cc2ccccc2)[C@@H](O)C[C@H](Cc2ccccc2)NC(=O)c2ccccc2NC(=O)OCc2ccccn2)cs1
- inhibition [1]: 61%
- EC50 [2]: > 10000 nM

Structure (SMILES): Nc1ccc(C(=O)N[C@@H](Cc2ccccc2)[C@@H](O)C[C@H](Cc2ccccc2)NC(=O)c2ccccc2NC(=O)OCc2ccccn2)cc1
- Ki [3]: 1.5 nM
- EC50 [2]: 500 nM

Structure (SMILES): CC(C)(C)OC(=O)N[C@@H](Cc1ccccc1)[C@@H](O)C[C@H](Cc1ccccc1)NC(=O)c1ccccc1NC(=O)OCc1ccccn1
- Ki [3]: 0.13 nM
- EC50 [2]: 600 nM

Structure (SMILES): O=C(Nc1ccccc1C(=O)N[C@@H](Cc1ccccc1)[C@@H](O)[C@@H](O)[C@H](Cc1ccccc1)NC(=O)c1cccc(O)c1)OCc1ccccn1
- Ki [3]: 1.7 nM
- EC50 [2]: 900 nM

Structure (SMILES): Nc1cccc(C(=O)N[C@@H](Cc2ccccc2)[C@@H](O)C[C@H](Cc2ccccc2)NC(=O)c2ccccc2NC(=O)OCc2ccccn2)c1
- Ki [3]: 0.4 nM
- EC50 [2]: 250 nM

Structure (SMILES): O=C(Nc1ccccc1C(=O)N[C@@H](Cc1ccccc1)C[C@H](O)[C@H](Cc1ccccc1)NC(=O)c1cccc(O)c1)OCc1ccccn1
- Ki [3]: 0.85 nM
- EC50 [2]: 300 nM

Structure (SMILES): O=C(Nc1ccccc1C(=O)N[C@@H](Cc1ccccc1)C[C@H](O)[C@H](Cc1ccccc1)NC(=O)c1ccno1)OCc1ccccn1
- Ki [3]: 1.2 nM
- EC50 [2]: 2000 nM

Structure (SMILES): CC(C)(C)OC(=O)N[C@@H](Cc1ccccc1)C[C@H](O)[C@H](Cc1ccccc1)NC(=O)c1ccccc1NC(=O)OCc1ccccn1
- Ki [3]: 0.85 nM
- EC50 [2]: 490 nM

Structure (SMILES): CCOC(=O)N[C@H](C(=O)N[C@@H](Cc1ccccc1)[C@@H](O)C[C@H](Cc1ccccc1)NC(=O)c1ccccc1NC(=O)OCc1ccccn1)[C@@H](C)CC
- Ki [3]: 0.02 nM
- EC50 [2]: 50 nM

Structure (SMILES): O=C(Nc1ccccc1C(=O)N[C@@H](Cc1ccccc1)C[C@H](O)[C@H](Cc1ccccc1)NC(=O)OCc1cncs1)OCc1ccccn1
- Ki [3]: 0.03 nM
- Ratio [4]: > 30
- EC50 [2]: 200 nM
- bioavailability [5]: 30%
- half-life [6]: 8 h

Structure (SMILES): O=C(Nc1ccccc1C(=O)N[C@@H](Cc1ccccc1)[C@H](O)[C@H](O)[C@H](Cc1ccccc1)NC(=O)c1cccc(O)c1)OCc1ccccn1
- Ki [3]: 0.5 nM
- EC50 [7]: Not Active

Structure (SMILES): Cc1c(O)cccc1C(=O)N[C@@H](Cc1ccccc1)C[C@H](O)[C@H](Cc1ccccc1)NC(=O)c1ccccc1NC(=O)OCc1ccccn1
- Ki [3]: 0.68 nM
- EC50 [2]: > 1000 nM

Structure (SMILES): Cc1ccccc1C(=O)N[C@@H](Cc1ccccc1)[C@@H](O)C[C@H](Cc1ccccc1)NC(=O)c1ccccc1NC(=O)OCc1ccccn1
- Ki [3]: 0.27 nM
- EC50 [2]: 500 nM

Structure (SMILES): Cc1c(N)cccc1C(=O)N[C@@H](Cc1ccccc1)[C@@H](O)C[C@H](Cc1ccccc1)NC(=O)c1ccccc1NC(=O)OCc1ccccn1
- Ki [3]: 0.12 nM
- EC50 [2]: 60 nM
- bioavailability [5]: < 2%

Structure (SMILES): Nc1ccc(C(=O)N[C@@H](Cc2ccccc2)[C@H](O)[C@H](O)[C@H](Cc2ccccc2)NC(=O)c2ccccc2NC(=O)OCc2ccccn2)cc1
- Ki [3]: 6.6 nM
- EC50 [7]: Not Active

Structure (SMILES): O=C(Nc1ccccc1C(=O)N[C@@H](Cc1ccccc1)[C@@H](O)C[C@H](Cc1ccccc1)NC(=O)c1cccc(O)c1)OCc1ccccn1
- Ki [3]: 8.6 nM
- EC50 [2]: > 10000 nM

Structure (SMILES): O=C(Nc1ccccc1C(=O)N[C@@H](Cc1ccccc1)C[C@H](O)[C@H](Cc1ccccc1)NC(=O)OCc1cccnc1)OCc1ccccn1
- Ki [3]: 0.01 nM
- EC50 [2]: 350 nM

Structure (SMILES): O=C(Nc1ccccc1C(=O)N[C@@H](Cc1ccccc1)C[C@H](O)[C@H](Cc1ccccc1)NC(=O)c1cscn1)OCc1ccccn1
- Ki [3]: 4.7 nM
- EC50 [2]: 3000 nM

Structure (SMILES): O=C(Nc1ccccc1C(=O)N[C@@H](Cc1ccccc1)C[C@H](O)[C@H](Cc1ccccc1)NC(=O)O[C@@H]1CCOC1)OCc1ccccn1
- Ki [3]: 0.04 nM
- Cmax [8]: 1040 nM
- EC50 [2]: 30 nM
- bioavailability [5]: 6%

Structure (SMILES): O=C(Nc1ccccc1C(=O)N[C@@H](Cc1ccccc1)C[C@H](O)[C@H](Cc1ccccc1)NC(=O)OCc1cscn1)OCc1ccccn1
- Ki [3]: 0.62 nM
- EC50 [2]: 600 nM

Structure (SMILES): Cc1c(O)cccc1C(=O)N[C@@H](Cc1ccccc1)[C@@H](O)C[C@H](Cc1ccccc1)NC(=O)c1ccccc1NC(=O)OCc1ccccn1
- Ki [3]: 0.06 nM
- EC50 [2]: 30 nM
- bioavailability [5]: 1%
- half-life [6]: 2.22 h
- Cmax [9]: 30 nM

Structure (SMILES): O=C(Nc1ccccc1C(=O)N[C@@H](Cc1ccccc1)[C@H](O)[C@H](O)[C@H](Cc1ccccc1)NC(=O)c1ccccc1NC(=O)OCc1ccccn1)OCc1ccccn1
- Ki [3]: 0.07 nM
- EC50 [2]: 60 nM

Structure (SMILES): CC(C)(C)OC(=O)N[C@@H](Cc1ccccc1)[C@@H](O)[C@@H](O)[C@H](Cc1ccccc1)NC(=O)c1ccccc1NC(=O)OCc1ccccn1
- Ki [3]: 0.13 nM
- EC50 [2]: 400 nM

Structure (SMILES): O=C(Nc1ccccc1C(=O)N[C@@H](Cc1ccccc1)[C@H](O)[C@H](O)[C@H](Cc1ccccc1)NC(=O)c1ccno1)OCc1ccccn1
- Ki [3]: 0.4 nM
- EC50 [2]: 800 nM

Structure (SMILES): CC(C)(C)OC(=O)N[C@@H](Cc1ccccc1)[C@H](O)[C@H](O)[C@H](Cc1ccccc1)NC(=O)c1ccccc1NC(=O)OCc1ccccn1
- Ki [3]: 0.45 nM
- EC50 [2]: 490 nM
- IC50 [10]: 21000 nM

Structure (SMILES): O=C(Nc1ccccc1C(=O)N[C@@H](Cc1ccccc1)[C@H](O)[C@H](O)[C@H](Cc1ccccc1)NC(=O)O[C@@H]1CCOC1)OCc1ccccn1
- Ki [3]: 0.07 nM
- EC50 [2]: 60 nM

Structure (SMILES): Cc1c(O)cccc1C(=O)N[C@@H](Cc1ccccc1)[C@@H](O)[C@@H](O)[C@H](Cc1ccccc1)NC(=O)c1ccccc1NC(=O)OCc1ccccn1
- Ki [3]: 0.09 nM
- EC50 [2]: 20 nM

Structure (SMILES): CCOC(=O)N[C@@H](C(=O)N[C@@H](Cc1ccccc1)[C@@H](O)C[C@H](Cc1ccccc1)NC(=O)c1ccccc1NC(=O)OCc1ccccn1)C(C)C
- Ki [3]: 0.03 nM
- EC50 [2]: 7 nM
